In patent publication US20230085307A1, “PYRIDAZINONE COMPOUND AND HERBICIDE” (NISSAN CHEMICAL CORPORATION, priority 2019, published 2023):

Key:
late watergrass = assay: Test Example 1: herbicidal activity, application before weed generation under submerged conditions (Table 16, symbol A); format: in vivo, late watergrass (Echinochloa oryzicola)
Summary of the method: (§1)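 Emulsion formulation, water-diluted to set dose, was put onto the flooded surface (4 cm depth, alluvial soil) the same day weeds were sown and 2.5-leaf rice transplanted. After 3 weeks at 25-30 °C under glass, each species was rated 0 (≤5% kill) to 5 (≥90% kill).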

Japanese bulrush = assay: Test Example 1: herbicidal activity, application before weed generation under submerged conditions (Table 16, symbol B); format: in vivo, Japanese bulrush (Schoenoplectus juncoides)
Summary of the method: as §1

oval-leafed pondweed = assay: Test Example 1: herbicidal activity, application before weed generation under submerged conditions (Table 16, symbol C); format: in vivo, oval-leafed pondweed (Monochoria vaginalis)
Summary of the method: as §1

barnyard grass [1] = assay: Test Example 3: herbicidal effect by foliage application, Wagner pot (Table 18, symbol H); format: in vivo, barnyard grass (Echinochloa crus-galli)
Summary of the method: (§2)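 Plants were sown in alluvial soil held under 0.1–0.5 cm standing water and grown 14 days in a greenhouse at 25–30 °C. An emulsifiable formulation, water-diluted to the set dose, was then sprayed onto the foliage, and effects were scored three weeks later using previously defined criteria.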

Chinese sprangletop = assay: Test Example 3: herbicidal effect by foliage application, Wagner pot (Table 18, symbol D); format: in vivo, chinese sprangletop (Leptochloa chinensis)
Summary of the method: as §2

rice flat sedge = assay: Test Example 3: herbicidal effect by foliage application, Wagner pot (Table 18, symbol E); format: in vivo, rice flat sedge (Cyperus iria)
Summary of the method: as §2

southern crabgrass [2] = assay: Test Example 4: herbicidal effect by soil treatment (Table 19, symbol F); format: in vivo, southern crabgrass (Digitaria ciliaris); settings: amount of applied herbicide 320 g/ha
Summary of the method: (§3)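 Emulsion of test compound, water-diluted to predetermined amount, sprayed on soil after sowing (seed depth ~1.5 cm, sterilized diluvial soil). Greenhouse, 25–30° C. Effect graded at three weeks post-spray.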

green foxtail [3] = assay: Test Example 4: herbicidal effect by soil treatment (Table 19, symbol G); format: in vivo, green foxtail (Setaria viridis); settings: amount of applied herbicide 320 g/ha
Summary of the method: as §3

barnyard grass [4] = assay: Test Example 4: herbicidal effect by soil treatment (Table 19, symbol H); format: in vivo, barnyard grass (Echinochloa crus-galli); settings: amount of applied herbicide 320 g/ha
Summary of the method: as §3

wild oat [5] = assay: Test Example 4: herbicidal effect by soil treatment (Table 19, symbol I); format: in vivo, wild oat (Avena fatua); settings: amount of applied herbicide 320 g/ha
Summary of the method: as §3

blackgrass [6] = assay: Test Example 4: herbicidal effect by soil treatment (Table 19, symbol J); format: in vivo, blackgrass (Alopecurus myosuroides); settings: amount of applied herbicide 320 g/ha
Summary of the method: as §3

Italian ryegrass [7] = assay: Test Example 4: herbicidal effect by soil treatment (Table 19, symbol K); format: in vivo, Italian ryegrass (Lolium multiflorum); settings: amount of applied herbicide 320 g/ha
Summary of the method: as §3

windgrass [8] = assay: Test Example 4: herbicidal effect by soil treatment (Table 19, symbol L); format: in vivo, windgrass (Apera spica-venti); settings: amount of applied herbicide 320 g/ha
Summary of the method: as §3

velvetleaf [9] = assay: Test Example 4: herbicidal effect by soil treatment (Table 19, symbol M); format: in vivo, velvetleaf (Abutilon theophrasti); settings: amount of applied herbicide 320 g/ha
Summary of the method: as §3

redroot pigweed [10] = assay: Test Example 4: herbicidal effect by soil treatment (Table 19, symbol N); format: in vivo, redroot pigweed (Amaranthus retroflexus); settings: amount of applied herbicide 320 g/ha
Summary of the method: as §3

lambsquarters [11] = assay: Test Example 4: herbicidal effect by soil treatment (Table 19, symbol O); format: in vivo, lambsquarters (Chenopodium album); settings: amount of applied herbicide 320 g/ha
Summary of the method: as §3

chickweed [12] = assay: Test Example 4: herbicidal effect by soil treatment (Table 19, symbol P); format: in vivo, common chickweed (Stellaria media); settings: amount of applied herbicide 320 g/ha
Summary of the method: as §3

false cleavers = assay: Test Example 4: herbicidal effect by soil treatment (Table 19, symbol Q); format: in vivo, false cleavers (Galium spurium); settings: amount of applied herbicide 320 g/ha
Summary of the method: as §3

southern crabgrass [13] = assay: Test Example 5: herbicidal effect by foliage application, plastic box (Table 20, symbol F); format: in vivo, southern crabgrass (Digitaria ciliaris); settings: evaluated three weeks after application
Summary of the method: (§4)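 Post-emergence foliar test in sterilized diluvial soil. Compound applied as water-diluted emulsion at a predetermined rate to 14-day-old plants; evaluation at three weeks.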

green foxtail [14] = assay: Test Example 5: herbicidal effect by foliage application, plastic box (Table 20, symbol G); format: in vivo, green foxtail (Setaria viridis); settings: evaluated three weeks after application
Summary of the method: as §4

barnyard grass [15] = assay: Test Example 5: herbicidal effect by foliage application, plastic box (Table 20, symbol H); format: in vivo, barnyard grass (Echinochloa crus-galli); settings: evaluated three weeks after application
Summary of the method: as §4

wild oat [16] = assay: Test Example 5: herbicidal effect by foliage application, plastic box (Table 20, symbol I); format: in vivo, wild oat (Avena fatua); settings: evaluated three weeks after application
Summary of the method: as §4

blackgrass [17] = assay: Test Example 5: herbicidal effect by foliage application, plastic box (Table 20, symbol J); format: in vivo, blackgrass (Alopecurus myosuroides); settings: evaluated three weeks after application
Summary of the method: as §4

Italian ryegrass [18] = assay: Test Example 5: herbicidal effect by foliage application, plastic box (Table 20, symbol K); format: in vivo, Italian ryegrass (Lolium multiflorum); settings: evaluated three weeks after application
Summary of the method: as §4

windgrass [19] = assay: Test Example 5: herbicidal effect by foliage application, plastic box (Table 20, symbol L); format: in vivo, windgrass (Apera spica-venti); settings: evaluated three weeks after application
Summary of the method: as §4

velvetleaf [20] = assay: Test Example 5: herbicidal effect by foliage application, plastic box (Table 20, symbol M); format: in vivo, velvetleaf (Abutilon theophrasti); settings: evaluated three weeks after application
Summary of the method: as §4

redroot pigweed [21] = assay: Test Example 5: herbicidal effect by foliage application, plastic box (Table 20, symbol N); format: in vivo, redroot pigweed (Amaranthus retroflexus); settings: evaluated three weeks after application
Summary of the method: as §4

lambsquarters [22] = assay: Test Example 5: herbicidal effect by foliage application, plastic box (Table 20, symbol O); format: in vivo, lambsquarters (Chenopodium album); settings: evaluated three weeks after application
Summary of the method: as §4

chickweed [23] = assay: Test Example 5: herbicidal effect by foliage application, plastic box (Table 20, symbol P); format: in vivo, common chickweed (Stellaria media); settings: evaluated three weeks after application
Summary of the method: as §4

persian speedwell = assay: Test Example 5: herbicidal effect by foliage application, plastic box (Table 20, symbol R); format: in vivo, Persian speedwell (Veronica persica); settings: evaluated three weeks after application
Summary of the method: as §4

[24] = amount of applied herbicide 320 g/ha
[25] = foliage application, AAH 320 g/ha
[26] = amount of applied herbicide 320 g/ha, foliage application after 14-day growth

## Cc1nn(C)c(=O)c(-c2c(-c3ccc(CSCC(F)F)cc3)sc3ccc(F)cc23)c1O [2-330]
Late watergrass; 320 g/ha applied herbicide
  Herbicidal effect on A: late watergrass (grade 0-5): 3 (Herbicidal rate of 40% or more and less than 70%)
Japanese bulrush; 320 g/ha applied herbicide
  Herbicidal effect on B: Japanese bulrush (grade 0-5): 0 (Herbicidal rate of 5% or less (almost no effect))
oval-leafed pondweed; 320 g/ha applied herbicide
  Herbicidal effect on C: oval-leafed pondweed (grade 0-5): 0 (Herbicidal rate of 5% or less (almost no effect))
Barnyard grass [1]; [24]
  herbicidal effect on H: barnyard grass: 5 (Herbicidal rate of 90% or more (almost completely withered))
Chinese sprangletop; [24]
  herbicidal effect on D: Chinese sprangletop: 2 (Herbicidal rate of 20% or more and less than 40%)
Rice flat sedge; [24]
  herbicidal effect on E: rice flat sedge: 4 (Herbicidal rate of 70% or more and less than 90%)
Southern crabgrass [2]
  herbicidal effect on F: southern crabgrass: 3 (Herbicidal rate of 40% or more and less than 70%)
Green foxtail [3]
  herbicidal effect on G: green foxtail: 1 (Herbicidal rate of 5% or more and less than 20%)
Barnyard grass [4]
  herbicidal effect on H: barnyard grass: 2 (Herbicidal rate of 20% or more and less than 40%)
Wild oat [5]
  herbicidal effect on I: wild oat: 0 (Herbicidal rate of 5% or less (almost no effect))
Blackgrass [6]
  herbicidal effect on J: blackgrass: 0 (Herbicidal rate of 5% or less (almost no effect))
Italian ryegrass [7]
  herbicidal effect on K: Italian ryegrass: 4 (Herbicidal rate of 70% or more and less than 90%)
Windgrass [8]
  herbicidal effect on L: windgrass: 0 (Herbicidal rate of 5% or less (almost no effect))
Velvetleaf [9]
  herbicidal effect on M: velvetleaf: 1 (Herbicidal rate of 5% or more and less than 20%)
Redroot pigweed [10]
  herbicidal effect on N: redroot pigweed: 4 (Herbicidal rate of 70% or more and less than 90%)
Lambsquarters [11]
  herbicidal effect on O: lambsquarters: 3 (Herbicidal rate of 40% or more and less than 70%)
Chickweed [12]
  herbicidal effect on P: chickweed: 0 (Herbicidal rate of 5% or less (almost no effect))
False cleavers
  herbicidal effect on Q: false cleavers: 0 (Herbicidal rate of 5% or less (almost no effect))
Southern crabgrass [13]; [25]
  F: southern crabgrass, herbicidal effect (criteria 0-5): 5 (Herbicidal rate of 90% or more (almost completely withered))
Green foxtail [14]; [25]
  G: green foxtail, herbicidal effect (criteria 0-5): 5 (Herbicidal rate of 90% or more (almost completely withered))
Barnyard grass [15]; [25]
  H: barnyard grass, herbicidal effect (criteria 0-5): 5 (Herbicidal rate of 90% or more (almost completely withered))
Wild oat [16]; [25]
  I: wild oat, herbicidal effect (criteria 0-5): 4 (Herbicidal rate of 70% or more and less than 90%)
Blackgrass [17]; [25]
  J: blackgrass, herbicidal effect (criteria 0-5): 4 (Herbicidal rate of 70% or more and less than 90%)
Italian ryegrass [18]; [25]
  K: Italian ryegrass, herbicidal effect (criteria 0-5): 5 (Herbicidal rate of 90% or more (almost completely withered))
Windgrass [19]; [25]
  L: windgrass, herbicidal effect (criteria 0-5): 5 (Herbicidal rate of 90% or more (almost completely withered))
Velvetleaf [20]; [25]
  M: velvetleaf, herbicidal effect (criteria 0-5): 5 (Herbicidal rate of 90% or more (almost completely withered))
Redroot pigweed [21]; [25]
  N: redroot pigweed, herbicidal effect (criteria 0-5): 5 (Herbicidal rate of 90% or more (almost completely withered))
Lambsquarters [22]; [25]
  O: lambsquarters, herbicidal effect (criteria 0-5): 5 (Herbicidal rate of 90% or more (almost completely withered))
Chickweed [23]; [25]
  P: chickweed, herbicidal effect (criteria 0-5): 5 (Herbicidal rate of 90% or more (almost completely withered))
Persian speedwell; [25]
  R: persian speedwell, herbicidal effect (criteria 0-5): 5 (Herbicidal rate of 90% or more (almost completely withered))

## Cc1nn(C)c(=O)c(-c2c(-c3ccc(C(F)(F)F)cc3)sc3c(C)cccc23)c1O [4-126]
Late watergrass; [24]
  Herbicidal effect, A: late watergrass: 3 (Herbicidal rate of 40% or more and less than 70%)
Japanese bulrush; [24]
  Herbicidal effect, B: Japanese bulrush: 0 (Herbicidal rate of 5% or less (almost no effect))
oval-leafed pondweed; [24]
  Herbicidal effect, C: oval-leafed pondweed: 0 (Herbicidal rate of 5% or less (almost no effect))
Barnyard grass [1]; 320 g/ha
  herbicidal effect on barnyard grass (H): 3 (Herbicidal rate of 40% or more and less than 70%)
Chinese sprangletop; 320 g/ha
  herbicidal effect on Chinese sprangletop (D): 0 (Herbicidal rate of 5% or less (almost no effect))
Rice flat sedge; 320 g/ha
  herbicidal effect on rice flat sedge (E): 3 (Herbicidal rate of 40% or more and less than 70%)
Southern crabgrass [2]
  Herbicidal effect by soil treatment, F: southern crabgrass: 0 (Herbicidal rate of 5% or less (almost no effect))
Green foxtail [3]
  Herbicidal effect by soil treatment, G: green foxtail: 0 (Herbicidal rate of 5% or less (almost no effect))
Barnyard grass [4]
  Herbicidal effect by soil treatment, H: barnyard grass: 0 (Herbicidal rate of 5% or less (almost no effect))
Wild oat [5]
  Herbicidal effect by soil treatment, I: wild oat: 0 (Herbicidal rate of 5% or less (almost no effect))
Blackgrass [6]
  Herbicidal effect by soil treatment, J: blackgrass: 0 (Herbicidal rate of 5% or less (almost no effect))
Italian ryegrass [7]
  Herbicidal effect by soil treatment, K: Italian ryegrass: 1 (Herbicidal rate of 5% or more and less than 20%)
Windgrass [8]
  Herbicidal effect by soil treatment, L: windgrass: 0 (Herbicidal rate of 5% or less (almost no effect))
Velvetleaf [9]
  Herbicidal effect by soil treatment, M: velvetleaf: 0 (Herbicidal rate of 5% or less (almost no effect))
Redroot pigweed [10]
  Herbicidal effect by soil treatment, N: redroot pigweed: 5 (Herbicidal rate of 90% or more (almost completely withered))
Lambsquarters [11]
  Herbicidal effect by soil treatment, O: lambsquarters: 3 (Herbicidal rate of 40% or more and less than 70%)
Chickweed [12]
  Herbicidal effect by soil treatment, P: chickweed: 4 (Herbicidal rate of 70% or more and less than 90%)
False cleavers
  Herbicidal effect by soil treatment, Q: false cleavers: 0 (Herbicidal rate of 5% or less (almost no effect))
Southern crabgrass [13]; [26]
  Herbicidal effect by foliage application, F: southern crabgrass: 0 (Herbicidal rate of 5% or less (almost no effect))
Green foxtail [14]; [26]
  Herbicidal effect by foliage application, G: green foxtail: 0 (Herbicidal rate of 5% or less (almost no effect))
Barnyard grass [15]; [26]
  Herbicidal effect by foliage application, H: barnyard grass: 0 (Herbicidal rate of 5% or less (almost no effect))
Wild oat [16]; [26]
  Herbicidal effect by foliage application, I: wild oat: 0 (Herbicidal rate of 5% or less (almost no effect))
Blackgrass [17]; [26]
  Herbicidal effect by foliage application, J: blackgrass: 3 (Herbicidal rate of 40% or more and less than 70%)
Italian ryegrass [18]; [26]
  Herbicidal effect by foliage application, K: Italian ryegrass: 4 (Herbicidal rate of 70% or more and less than 90%)
Windgrass [19]; [26]
  Herbicidal effect by foliage application, L: windgrass: 0 (Herbicidal rate of 5% or less (almost no effect))
Velvetleaf [20]; [26]
  Herbicidal effect by foliage application, M: velvetleaf: 5 (Herbicidal rate of 90% or more (almost completely withered))
Redroot pigweed [21]; [26]
  Herbicidal effect by foliage application, N: redroot pigweed: 5 (Herbicidal rate of 90% or more (almost completely withered))
Lambsquarters [22]; [26]
  Herbicidal effect by foliage application, O: lambsquarters: 3 (Herbicidal rate of 40% or more and less than 70%)
Chickweed [23]; [26]
  Herbicidal effect by foliage application, P: chickweed: 5 (Herbicidal rate of 90% or more (almost completely withered))
Persian speedwell; [26]
  Herbicidal effect by foliage application, R: persian speedwell: 5 (Herbicidal rate of 90% or more (almost completely withered))
